In BindingDB's records for PubMed 18089823 (Harvard Medical School):

Biological target: 3-phosphoinositide-dependent protein kinase 1 (Homo sapiens) (UniProt O15530)
Experiment: Inhibition of recombinant PDK1 (unknown origin)

IC50: > 10 µM
SMILES: COc1cc2ncnc(Nc3ccc(F)c(Cl)c3)c2cc1NC(=O)/C=C/CN1CCCCC1 [DACOMITINIB]
